# Measurements taken from patent US12011448B2, “Therapeutic or preventing agent for nephrotic syndrome including indole compound” (Japan Tobacco Inc., priority 2018, dated 2024).
# Assays:
# [1] = system: rat anti-glomerular basement membrane (GBM) antibody induced nephritis model; experiment: rat anti-GBM antibody induced nephritis model (urinary protein excretion, plasma total cholesterol); format: in vivo; conditions: disease animal model showing nephrotic syndrome-like symptoms
# Protocol: Using a rat anti-GBM antibody induced nephritis model, the suppressive effect of Compound A on an increase in urinary protein excretion and plasma total cholesterol concentration so was evaluated. The evaluation was performed by reference to non-patent document 2. As the experiment animal, 8-week-old female WKY/NCrlCrlj rat (CHARLES RIVER LABORATORIES JAPAN, INC.) was used. Monohydrochloride of Compound A was dissolved in 0.5% (w/v) methylcellulose (MC) to prepare 2 mg/mL and 6 mg/mL Compound A solutions. Ciclosporin (Wako Pure Chemical Industries, Ltd., 0.5% (w/v)) was suspended in MC to prepare a 2 mg/mL Ciclosporin suspension. […]
# As for urine, the urine volume was measured, after which the protein concentration in the centrifugal supernatant was measured by absorbance at wavelength 600 nm/sub-wavelength 660 nm using a total protein assay kit (micro TP-Test Wako, Wako Pure Chemical Industries, Ltd.). The urinary protein excretion (mg/day) was calculated from the urine volume and the protein concentration.
# As for blood, the total cholesterol concentration (mg/dL) in plasma obtained by centrifugation was measured using a biochemical automatic analysis apparatus (Hitachi automatic analysis apparatus 7180, Hitachi High-Technologies).
# The mean of the urinary protein excretion and the plasma total cholesterol concentration was calculated.
# [2] = molecular target: T1, inducible T cell kinase (ITK) (Homo sapiens, UniProt Q08881); conditions: described in patent document 1 (WO 2011/065402); cited from earlier work
# T1 sequence (Q08881 1-620): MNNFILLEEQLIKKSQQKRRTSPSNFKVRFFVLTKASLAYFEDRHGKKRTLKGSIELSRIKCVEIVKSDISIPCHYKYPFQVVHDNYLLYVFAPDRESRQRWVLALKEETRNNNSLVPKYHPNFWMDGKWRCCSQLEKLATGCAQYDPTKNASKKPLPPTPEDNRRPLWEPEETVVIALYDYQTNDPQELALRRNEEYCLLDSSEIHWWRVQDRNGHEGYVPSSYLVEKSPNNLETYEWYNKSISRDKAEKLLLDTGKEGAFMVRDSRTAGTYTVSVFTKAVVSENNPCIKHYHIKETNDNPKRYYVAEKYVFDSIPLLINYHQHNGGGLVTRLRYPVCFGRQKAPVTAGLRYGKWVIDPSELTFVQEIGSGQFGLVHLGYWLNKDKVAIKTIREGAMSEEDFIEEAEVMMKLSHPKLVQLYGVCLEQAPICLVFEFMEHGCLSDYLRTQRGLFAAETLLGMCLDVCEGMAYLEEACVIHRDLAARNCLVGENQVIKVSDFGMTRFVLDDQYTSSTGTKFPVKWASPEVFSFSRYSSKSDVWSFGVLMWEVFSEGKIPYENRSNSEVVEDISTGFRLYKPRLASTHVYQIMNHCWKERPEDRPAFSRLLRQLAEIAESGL
compound,measurement,setting,value
"C[C@@H](C(=O)N(C)c1ccc2cc(-c3n[nH]c4c3CCC(C)(C)C4)[nH]c2c1)N1CCOCC1 [Compound A, N-[2-(6,6-dimethyl-4,5,6,7-tetrahydro-1H-indazol-3-yl)-1H-indol-6-yl]-N-methyl-(2S)-2-(morpholin-4-yl)propanamide]",severity of the disease,[1],significantly reduce severity of the disease
same,inducible T cell kinase (ITK) inhibitory activity,[2],has an inducible T cell kinase (ITK) inhibitory activity
